Series [1] concerns primary lung cancer Kras^LSL-G12Dp53^fl/fl (KP) mouse model. The series can be described thus: Tumor burden of mice with primary lung cancer (HE lung sections). The settings on record: 10 nmol daily by gavage for one month, sphingosine(d18:1) delivery system, HE-stained left lung section, vs NC group. Format: in vivo. An excerpt: The mouse model of primary lung cancer was Kras^LSL-G12Dp53^fl/fl (KP).
Mice were weighed and assigned to the negative control group (NC group) and HQi-sRNA-2 group randomly. The NC group was the negative control, in which a sphingosine(d18:1)-NC-sRNA herbal medicine delivery system was constructed from NC-sRNA. The HQi-sRNA-2 group was the experimental group, in which a sphingosine(d18:1)-HQi-sRNA-2 herbal medicine delivery system was constructed from HQi-sRNA-2.
The herbal medicine delivery system was constructed by heating and mixing 10 nmol of sRNA, 100 ug of sphingosine(d18:1) and 300 ul of sterile enzyme-free water in a water bath at 90° C. for 15 minutes.
Each mouse with a uniform body weight was dosed by gavage. Each mouse was given 10 nmol of HQi-sRNA-2 mimic daily by gavage for one month.
The lungs of mice were collected to prepare pathological sections. The left lung was collected and sliced at the largest surface for every mouse, and stained with HE. The area of tumor in the whole pathological section was counted, the tumor burden was calculated, and statistical analysis was performed.
Mice were weighed and assigned to the negative control group (NC group), MDM-sRNA-39 group and MDM-sRNA-163 group randomly. The NC group was the negative control, in which a sphingosine(d18:1)-NC-sRNA herbal medicine delivery system was constructed from NC-sRNA. The MDM-sRNA-39 group was an experimental group, in which a sphingosine(d18:1)-MDM-sRNA-39 herbal medicine delivery system was constructed from MDM-sRNA-39. The MDM-sRNA-163 group was an experimental group, in which a sphingosine(d18:1)-MDM-sRNA-163 herbal medicine delivery system was constructed from MDM-sRNA-163.

In series [2] the test system is A549 cells. The series can be described thus: Concentration-dependent proliferation inhibition, MTS. The following applies: concentration gradient, MTS 48 h after transfection. The format is cell-based, human. As for the experimental part: (§1) 1) H460 and A549 cells with a cell density of more than 90% in 10 cm^2 dishes were plated in 96-well plates according to the cell growth rate, and transfected after 12 h, and the groups (3 wells per group) were divided as follows: • BLANK group: 20 uL of opti-MEM • negative control group (NC group) and experimental group: • A. 10 uL of opti-MEM and 0.2 uL of iMax were mixed well for 5 min • B. 10 uL of opti-MEM and small RNA were mixed well (the concentration gradient of H460 cell experimental group was set as: 0.01 noml/L, 0.03 noml/L, 0.1 noml/L, 0.39 noml/L, 0.78 noml/L, 1.56 noml/L, 3.125 noml/L, 6.25 noml/L, 12.5 noml/L, 25 noml/L, 50 noml/L, 100 noml/L; the concentration gradient of A549 cell experimental group was set as: 0.01 noml/L, 0.03 noml/L, 0.1 noml/L, 0.3 noml/L, 1 noml/L, 3 noml/L, 10 noml/L, 30 noml/L, 100 noml/L, 300 noml/L; the final concentration of sRNA in NC group was 100 noml/L) • C. solution A and solution B were mixed well and let stand for 15 min, and then was added at a 20 ul/well system • Note: 100 uL of nuclease-free water was added to 2 nmol of small RNA dry powder for dissolution at a storage concentration of 20 umol/L
(§2) 2) Detection of cell viability: MTS detection was performed after 48 h.
(§3) Formulation of MTS detection solution was as follows: opti-MEM:MTS A solution:MTS B solution=100:20:1. After removing the supernatant, 100 uL of MTS detection solution was added to each well and incubated for 0.5-2 h. Absorbance values at wavelengths of 490 nm and 630 nm were measured in a microplate reader.
(§4) 1) H460 and A549 cells with a cell density of more than 90% in 10 cm^2 dishes were plated in 96-well plates according to the cell growth rate, and transfected after 12 h, and the groups (3 wells per group) were divided as follows: • blank control group: 20 uL of opti-MEM • negative control group (NC group) and experimental group: • A. 10 uL of opti-MEM and 2 uL of iMax were mixed well for 5 min • B. 10 uL of opti-MEM and small RNA were mixed well (the concentration gradient of H460 cell experimental group was set as: 0.01 noml/L, 0.03 nmol/L, 0.1 noml/L, 0.3 noml/L, 1 noml/L, 3 noml/L, 10 noml/L, 30 noml/L, 100 noml/L, 300 noml/L, 400 noml/L, 500 noml/L; the concentration gradient of A549 cell experimental group was set as: 0.01 noml/L, 0.03 nmol/L, 0.1 noml/L, 0.3 noml/L, 1 noml/L, 3 noml/L, 10 noml/L, 30 noml/L, 100 noml/L, 300 noml/L; the final concentration of sRNA in NC group was 100 noml/L) • C. solution A and solution B were mixed well and let stand for 15 min, and then was added to each well at a 20 uL system • positive group: the concentration of paclitaxel was adjusted to 100 nmol/L • Note: 100 uL of nuclease-free water was added to 2 nmol of small RNA dry powder for dissolution at a storage concentration of 20 umol/L
(§5) 1) H460 and A549 cells with a cell density of more than 90% in 10 cm^2 dishes were plated in 96-well plates according to the cell growth rate, and transfected after 12 h, and the groups (3 wells per group) were divided as follows: • blank control group: 20 uL of opti-MEM • negative control group (NC group) and experimental group: • A. 10 uL of opti-MEM and 0.2 uL of iMax were mixed well for 5 min • B. 10 uL of opti-MEM and small RNA were mixed well (the concentration gradient of H460 cell experimental group was set as: 0.1 noml/L, 0.3 noml/L, 1 noml/L, 3 noml/L, 10 noml/L, 30 noml/L, 100 noml/L, 300 noml/L; the concentration gradient of A549 cell experimental group was set as: 0.01 noml/L, 0.03 nmol/L, 0.1 noml/L, 0.3 noml/L, 1 noml/L, 3 noml/L, 10 noml/L, 30 noml/L, 100 noml/L, 300 noml/L; the final concentration of sRNA in NC group was 100 noml/L) • C. solution A and solution B were mixed well and let stand for 15 min, and then a 20 uL system was added at a 20 uL system • Note: 100 uL of nuclease-free water was added to 2 nmol of small RNA dry powder for dissolution at a storage concentration of 20 umol/L

Series [3] deals with H460 cells. Described as above. The format is cell-based, human. The settings on record: concentration gradient, MTS 48 h after transfection. As for the experimental part:
as §1, §2, §3, §4, §5

Take “HQi-sRNA-2: small RNA derived from Scutellaria baicalensis, sequence AUGGUUCGAUUCCGGAGAGGG (listed as RNA, chemistry not given here)”: the “tumor burden of mice with primary lung cancer” value (from here on “tumor burden of mice”) in series [1] was “significantly reduced”. For the same substance, the “proliferation-inhibiting function (cell activity, MTS)” value (shortened to “proliferation-inhibiting function”) in series [2] and in series [3] was “concentration-dependent” throughout.

As for “MDM-sRNA-39: small RNA derived from Maytenus hookeri, sequence GGGAUUGUAGUUCAAUUGGUCAGAGCACC (listed as RNA, chemistry not given here)”, in series [1], the “tumor burden of mice” value is recorded as “significantly reduced”. For the same substance, the “proliferation-inhibiting function” value in series [2] and in series [3] was “concentration-dependent” each time.

Regarding “MDM-sRNA-163: small RNA derived from Maytenus hookeri, sequence UGACUCUAGUCCGACUUUGUGAAAUGACU (listed as RNA, chemistry not given here)”, the “tumor burden of mice” value in series [1] is “significantly reduced”. Also, the “proliferation-inhibiting function” value in series [2] and in series [3] was “concentration-dependent” each time.
